What all share (assay type): binding
Assay [1] deals with T1, Dat (dopamine N-acetyltransferase; Dat21-230) (Drosophila melanogaster, UniProt Q94521).
T1 construct: gene speck; truncated Dat residues 21-230 of 240; pGEX-6p3, GST tag cut by PreScission protease; E. coli BL21 (DE3)
Put plainly: X-ray crystallography, cocrystal. As to conditions: substrate pocket.

Assay [2] deals with T1, Dat (dopamine N-acetyltransferase; Dat21-230). Put plainly: X-ray crystallography (cocrystallization of Dat, Ac-CoA and PEA); NMR HSQC. As to conditions: ternary complex with CoA; product formed in the crystal.
The target is the same in assay [3]. Put plainly: isothermal titration calorimetry. An excerpt:
isothermal titration calorimetry on Dat (dopamine N-acetyltransferase; Dat21-230)

Five compounds from article PMC7427786, “An essential role of acetyl coenzyme A in the catalytic cycle of insect arylalkylamine N-acetyltransferase” (Communications Biology, 2020) can be followed below.

T1 sequence (Q94521 56-265): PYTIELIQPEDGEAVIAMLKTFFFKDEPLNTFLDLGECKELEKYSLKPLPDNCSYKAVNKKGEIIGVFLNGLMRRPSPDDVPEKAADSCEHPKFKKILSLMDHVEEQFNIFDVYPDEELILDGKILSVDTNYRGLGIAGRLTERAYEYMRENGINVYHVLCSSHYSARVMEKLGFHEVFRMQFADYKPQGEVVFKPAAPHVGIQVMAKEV

For the compound `OCCc1c[nH]c2ccccc12` [tryptophol], the “X-ray crystallography, cocrystal” value in assay [1] (ternary complex with Ac-CoA, dead-end analog of tryptamine, 1.28 Å) was “Dat/Ac-CoA/tryptophol (mimicking the enzyme-substrates complex)”.

In the case of `CC(=O)NCCc1ccccc1` [Ac-PEA], the “X-ray crystallography (cocrystallization of Dat, Ac-CoA and PEA); NMR HSQC” value in assay [2] is “crystals of Dat with two products, CoA and Ac-PEA (PDB code: 5GI7)”.

Broadly, the Kd is the equilibrium constant for the complex coming apart. In the case of `CC(=O)SCCNC(=O)CCNC(=O)[C@H](O)C(C)(C)COP(=O)(O)OP(=O)(O)OC[C@H]1O[C@@H](n2cnc3c(N)ncnc32)[C@H](O)[C@@H]1OP(=O)(O)O` [Ac-CoA], the Kd in assay [3] was 5.51 ± 1.92 µM.

Turning to `CC(C)(COP(=O)(O)OP(=O)(O)OC[C@H]1O[C@@H](n2cnc3c(N)ncnc32)[C@H](O)[C@@H]1OP(=O)(O)O)[C@@H](O)C(=O)NCCC(=O)NCCS` [CoA], in assay [3], the Kd was 153 ± 26.5 µM.

As for `CC(=O)NCCc1c[nH]c2ccccc12` [Ac-TRYP], in assay [1] (ternary complex with CoA, 1.36 Å), the “X-ray crystallography, cocrystal” value is recorded as “Dat/CoA/Ac-TRYP (representing the enzyme-products complex)”.
